Assay results from ChEMBL document CHEMBL1126282, “Synthesis and conformational properties of the lanthionine-bridged opioid peptide [D-AlaL2,AlaL5]enkephalin as determined by NMR and computer simulations” (J Med Chem, 1992).

Columns and labels:
Mus musculus [1] = organism: Mus musculus; assay: Potency to inhibit electrically induced contraction of mouse vas deferens(MVD) relative to [Leu5]-enkephalin.; format: functional
Cavia porcellus [2] = organism: Cavia porcellus; assay: Potency to inhibit electrically induced contraction of guinea pig ileum(GPI) relative to [Leu5]-enkephalin.; format: functional
Rattus norvegicus = assay: Effective dose was measured using in vivo rat hot plate test after intrathecal injection; format: functional; conditions: central
[3] = Selectivity Ratio of IC50 of MVD to IC50 of GPI; format: functional
Cavia porcellus [4] = assay: Concentration inhibiting electrically induced contraction of guinea pig ileum(GPI) at an ED50 of 0.15(ug/kg).; format: functional, organism-based
Mus musculus [5] = assay: Concentration inhibiting electrically induced contraction of mouse vas deferens(MVD) at an ED50 of 0.15(ug/kg).; format: functional, organism-based
Cavia porcellus [6] = organism: Cavia porcellus; assay: Concentration inhibiting electrically induced contraction of guinea pig ileum(GPI).; format: functional, organism-based

In the case of `NC(=O)[C@@H]1CSSC[C@@H](NC(=O)[C@@H](N)Cc2ccc(O)cc2)C(=O)NCC(=O)N[C@@H](Cc2ccccc2)C(=O)N1` [listing 1 of 2 here], the Relative potency (Mus musculus [1]) is reported as 17 and the Relative potency (Cavia porcellus [2]) is reported as 132.

`CC(C)C[C@H](NC(=O)[C@H](Cc1ccccc1)NC(=O)CNC(=O)CNC(=O)[C@@H](N)Cc1ccc(O)cc1)C(=O)O` [ENKEPHALIN] showed an ED50 (Rattus norvegicus) of over 100 µg/kg.

For `NC(=O)[C@H]1CSSC[C@H](NC(=O)[C@@H](N)Cc2ccc(O)cc2)C(=O)NCC(=O)N[C@H](Cc2ccccc2)C(=O)N1`, the Ratio [3] was 0.503.

Compound `NC(=O)[C@@H]1CSC[C@@H](NC(=O)[C@@H](N)Cc2ccc(O)cc2)C(=O)NCC(=O)N[C@@H](Cc2ccccc2)C(=O)N1` has an ED50 (Rattus norvegicus) of 0.15 µg/kg, an IC50 (Cavia porcellus [4]) of 0.62 nM and a Ratio [3] of 0.882. The Relative potency (Mus musculus [1]) was 21, the IC50 (Mus musculus [5]) was 0.54 nM and the Relative potency (Cavia porcellus [2]) was 396.

With `CN1CC[C@]23c4c5ccc(O)c4O[C@H]2[C@@H](O)C=C[C@H]3[C@H]1C5` [MORPHINE] the ED50 (Rattus norvegicus) was 5.6 µg/kg.

With `NC(=O)[C@@H]1CSSC[C@@H](NC(=O)[C@@H](N)Cc2ccc(O)cc2)C(=O)NCC(=O)N[C@@H](Cc2ccccc2)C(=O)N1` [listing 2 of 2 here] the IC50 (Cavia porcellus [6]) was 1.51 nM.
